In one series the target is human DPP IV (Homo sapiens, UniProt P27487). In words: Cleavage/degradation by DPP IV, HPLC/MS. Format: in vitro ADME. Conditions: for resistance to cleavage by DPP IV: in comparison to native GLP-1; for degradation by human DPP IV: two hours of treatment with human DPP IV, versus untreated peptide. Here is the method: However, it is most desirable to produce peptide analogs that are not only resistant to proteolysis, but also retain all or much of the biological activity of the native peptide. Accordingly, we conducted a series of experiments to ascertain whether these GLP-1 analogs which display robust resistance to degradation by DPP IV also retain biological activities of native GLP-1
Sequence of human DPP IV (P27487 whole entry): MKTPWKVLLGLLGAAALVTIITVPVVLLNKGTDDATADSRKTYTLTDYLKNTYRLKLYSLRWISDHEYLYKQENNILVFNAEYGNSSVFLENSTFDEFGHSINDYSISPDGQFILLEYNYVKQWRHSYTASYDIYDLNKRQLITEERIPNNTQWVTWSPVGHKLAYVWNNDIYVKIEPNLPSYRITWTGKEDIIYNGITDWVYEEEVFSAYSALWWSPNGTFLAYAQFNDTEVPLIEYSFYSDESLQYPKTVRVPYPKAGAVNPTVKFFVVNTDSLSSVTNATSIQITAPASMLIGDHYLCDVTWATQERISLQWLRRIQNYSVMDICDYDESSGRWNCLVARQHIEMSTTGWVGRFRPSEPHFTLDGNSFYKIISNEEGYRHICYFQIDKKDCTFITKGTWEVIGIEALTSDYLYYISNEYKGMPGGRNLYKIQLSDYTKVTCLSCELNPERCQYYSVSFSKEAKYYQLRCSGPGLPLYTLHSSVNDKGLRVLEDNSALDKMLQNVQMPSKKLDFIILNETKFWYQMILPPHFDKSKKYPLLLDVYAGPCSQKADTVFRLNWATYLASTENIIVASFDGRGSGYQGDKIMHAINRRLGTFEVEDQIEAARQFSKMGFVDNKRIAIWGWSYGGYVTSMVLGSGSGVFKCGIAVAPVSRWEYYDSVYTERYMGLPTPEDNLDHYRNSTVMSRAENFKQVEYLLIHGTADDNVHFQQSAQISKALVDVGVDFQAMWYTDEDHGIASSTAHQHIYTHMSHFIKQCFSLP
TLE-modified GLP-1 analog was treated with human DPP IV for two hours, and degradation of the analog over time was compared to that of analog in the absence of DPP IV.

The target in another series is thrombin (Homo sapiens, UniProt P00734). In words: Thrombin digestion of model peptide, C18 HPLC/MS. Format: in vitro ADME. Conditions: 4 hours at 23° C., 10 nM thrombin, 0.1 M HEPES pH 8. The procedure: Briefly, the peptide […] (SEQ ID NO: 31) is a model substrate for thrombin. Thrombin cleaves after the arginine residue. Accordingly, the serine residue of this model peptide is the P′1 positions. WALAPR^↓SFA
To compare digestion of the model peptide analog by thrombin with that of the native model peptide, peptides were digested for 4 hours at 23° C. with 10 nM thrombin in 0.1 M HEPES pH 8, 0.14 M NaCl, 5 mM CaCl2, 0.5% PEG6000. Following digestion, C18 reverse phase HPLC of the digests was compared to the undigested peptides, and the mass spectra of the major peaks are shown for each chromatogram in FIG. 7.

For series [1] the following is noted: cited from earlier work.

This is an account of results in patent US7994121B2, “Stable analogs of peptide and polypeptide therapeutics” (Trustees of Tufts College, priority 2003, dated 2011).

“Also recorded” adds a separate entry of the source. Like-named read-outs stand apart in the source and are kept apart here. Square brackets hold non-standard residues; d marks the D form. Ends that are not written are not given here. Peptide text beside a SMILES is read from it. Tle = CC(C)(C)[C@H](N)C(=O)O

`CC[C@H](C)[C@H](NC(=O)[C@H](Cc1ccccc1)NC(=O)[C@H](CCC(=O)O)NC(=O)[C@H](CCCCN)NC(=O)[C@H](C)NC(=O)[C@H](C)NC(=O)[C@H](CCC(N)=O)NC(=O)CNC(=O)[C@H](CCC(=O)O)NC(=O)[C@H](CC(C)C)NC(=O)[C@H](Cc1ccc(O)cc1)NC(=O)[C@H](CO)NC(=O)[C@H](CO)NC(=O)[C@@H](NC(=O)[C@H](CC(=O)O)NC(=O)[C@H](CO)NC(=O)[C@@H](NC(=O)[C@H](Cc1ccccc1)NC(=O)[C@@H](NC(=O)CNC(=O)C(NC(=O)[C@H](C)NC(=O)[C@@H](N)Cc1c[nH]cn1)C(C)(C)C(=O)O)[C@@H](C)O)[C@@H](C)O)C(C)C)C(=O)N[C@@H](C)C(=O)N[C@@H](Cc1c[nH]c2ccccc12)C(=O)N[C@@H](CC(C)C)C(=O)N[C@H](C(=O)N[C@@H](CCCCN)C(=O)NCC(=O)N[C@@H](CCCNC(=N)N)C(=O)NCC(=O)O)C(C)C` (stereo partly drawn) [GLP-1 (3DMA)]: the “resistance to cleavage by DPP IV” value at human DPP IV is “resistant to cleavage by DPP IV”.

For the molecule `CC(C)C[C@H](NC(=O)[C@H](C)NC(=O)[C@@H](N)Cc1c[nH]c2ccccc12)C(=O)N[C@@H](C)C(=O)N1CCC[C@H]1C(=O)N[C@@H](CCCNC(=N)N)C(=O)N[C@H](C(=O)N[C@@H](Cc1ccccc1)C(=O)N[C@@H](C)C(=O)O)C(C)(C)C` [TLE substituted peptide analog, WALAPRXFA] (H-WALAPR[Tle]FA-OH), the cleavage by thrombin result on thrombin is on record as “not cleaved by thrombin”. In the case of `CC[C@H](C)[C@H](NC(=O)[C@H](Cc1ccccc1)NC(=O)[C@H](CCC(=O)O)NC(=O)[C@H](CCCCN)NC(=O)[C@H](C)NC(=O)[C@H](C)NC(=O)[C@H](CCC(N)=O)NC(=O)CNC(=O)[C@H](CCC(=O)O)NC(=O)[C@H](CC(C)C)NC(=O)[C@H](Cc1ccc(O)cc1)NC(=O)[C@H](CO)NC(=O)[C@H](CO)NC(=O)[C@@H](NC(=O)[C@H](CC(=O)O)NC(=O)[C@H](CO)NC(=O)[C@@H](NC(=O)[C@H](Cc1ccccc1)NC(=O)[C@@H](NC(=O)CNC(=O)[C@@H](NC(=O)[C@H](C)NC(=O)[C@@H](N)Cc1c[nH]cn1)C(C)(C)C)[C@@H](C)O)[C@@H](C)O)C(C)C)C(=O)N[C@@H](C)C(=O)N[C@@H](Cc1c[nH]c2ccccc12)C(=O)N[C@@H](CC(C)C)C(=O)N[C@H](C(=O)N[C@@H](CCCCN)C(=O)NCC(=O)N[C@@H](CCCNC(=N)N)C(=O)NCC(=O)O)C(C)C` [TLE-modified GLP-1], the “degradation by human DPP IV” value on human DPP IV is recorded as “resistant to degradation by DPP IV”. Turning to “GLP-1 (BM): GLP1(7-37) analog wherein the P′1 glutamic acid is substituted by 3-butyl-methyl-glycine (HAXGTFTSDVSSYLEGQAAKEFIAWLVKGRG; non-natural residues)”, the “resistance to cleavage by DPP IV” value in the series with human DPP IV is “resistant to cleavage by DPP IV”.

With “GLP-1: exogenous GLP-1 given subcutaneously or intravenously to subjects (Deacon et al.); metabolite co-elutes with GLP-I(9-36) amide”, in series [1] (intravenous infusion), the “degradation of infused GLP-1” value was “extensively degraded”. Also, the “metabolite share of the increase in plasma immunoreactivity (CO2H-terminal RIA)” value is on record as 88.5+1.9% in series [1] (thirty minutes after subcutaneous GLP-1, diabetic patients (n is 8)) and 78.4+3.2% in series [1] (thirty minutes after subcutaneous GLP-1, healthy subjects (n=8)).

For the molecule “HAE GTFTSDVSSY LEGQAAKEFI AWLVKGRG [GLP-1 (7-37)]”, the “degradation by human DPP IV” value on human DPP IV was “time dependent degradation; also recorded: time dependent loss of peptide”. Regarding WALAPRSFA [unmodified peptide], the cleavage by thrombin result on thrombin is “efficiently cleaved by thrombin”.
